Tested on: Jurkat T-Cells (E6-1 from ATCC)
Test: In vitro T-cell activation/inhibition assay (anti-CD3/anti-CD28 stimulation, IL-2 ELISA)
Type: cell-based, human
Conditions: 37° C., CHP 100 μM with gelatin 0.5 mg/mL
Method: A particular in vitro activation assay was carried out to evaluate the effects that the anti-inflammatory bioactive LAIR-1 CHPs have on T-cells. Details regarding the experimental conditions for the T-cell assay with Jukat T-cells are depicted in FIG. 13. As shown, Jukat T-cells were incubated with activating antibodies against CD3 and CD28 receptors to initiate activation. […] T-cell activation was then assessed by ELISA for IL-2 secretion in media supernatant. Activated T-cells express high levels of IL-2.
Secreted IL-2 was measured for the following conditions: negative control which were unactivated T cells; positive control T cells which received anti-CD3 and anti-CD28 antibodies; positive control t cells which received stimulating antibodies in the presence of soluble gelatin; and the CHP test condition which received stimulating antibodies in the presence of LAIR1-CHPs.
For the T-cell activation/inhibition experimental protocol, three monomeric CHPs (LAIR-1 HTm CHP1 [SEQ ID NO: 87, wherein x=4 and y=4], LAIR-1 HTm CHP2 [SEQ ID NO: 2, wherein x=4 and y=4], and LAIR-1 HTm CHP3 [SEQ ID NO: 106]) were tested for T-cell activation/inhibition. First, CHPs were incubated with the gelatin under test conditions for at least 24 hours at 37° C. The final gelatin concentration in the media for incubation was 0.5 mg/mL. […]

Biotin-GGG-(GPO)9 [LAIR-1 HTm CHP3]
effect on IL 2 production compared to the gelatin positive control (72 hours post-stimulation): did not have an effect
effect on IL 2 production compared to the gelatin positive control (96 hours post-stimulation): did not have an effect

— patent US20260234215A1, “Anti-Inflammatory Bio-Active Collagen Hybridizing Peptides and Methods of Using Thereof” (3HELIX, INC., priority 2023, published 2026)
